Laboratory results from ChEMBL document CHEMBL1944572, “High-affinity fluorescent ligands for the 5-HT(3) receptor” (Bioorg Med Chem Lett, 2012).
Active and inactive are the calls of the source. No cut-off for these calls is given here.

Key:
Assay type in all cases: cell-based
[1] = molecular target: T1, 5-hydroxytryptamine receptor 3A (Homo sapiens) (UniProt P46098); assay: Binding affinity to human 5HT3A expressed in COS7 cells at 100 nM after 1 hr by fluorescence microscopy; conditions: COS-7
T1 sequence (whole entry): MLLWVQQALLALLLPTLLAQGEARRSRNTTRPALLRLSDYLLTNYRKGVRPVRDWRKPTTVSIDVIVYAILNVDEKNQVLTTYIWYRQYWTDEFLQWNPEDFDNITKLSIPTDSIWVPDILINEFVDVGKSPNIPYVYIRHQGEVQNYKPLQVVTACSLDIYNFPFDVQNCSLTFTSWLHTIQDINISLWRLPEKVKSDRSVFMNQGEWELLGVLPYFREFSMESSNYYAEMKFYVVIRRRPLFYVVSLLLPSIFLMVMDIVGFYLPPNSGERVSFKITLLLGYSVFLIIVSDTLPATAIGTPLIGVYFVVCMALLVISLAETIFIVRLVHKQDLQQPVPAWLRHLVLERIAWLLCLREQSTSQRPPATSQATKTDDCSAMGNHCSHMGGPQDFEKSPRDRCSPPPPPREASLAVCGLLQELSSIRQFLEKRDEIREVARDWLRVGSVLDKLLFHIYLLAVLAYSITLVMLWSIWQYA

[2] = molecular target: T1, 5-hydroxytryptamine receptor 3A (Homo sapiens); assay: Binding affinity to human 5HT3A expressed in COS7 cells at 100 nM after 1 hr by fluorescence microscopy in presence of 10 uM ondansetron; conditions: COS-7
[3] = molecular target: T2, 5-hydroxytryptamine receptor 3A (Homo sapiens, UniProt P46098); assay: Displacement of [3H]granisetron from human 5HT3A expressed in HEK293 cells after 1 hr by scintillation counting
T2 sequence (P46098 whole entry): T1 sequence (whole entry)

SMILES: CN1[C@@H]2CCC[C@H]1C[C@H](NC(=O)c1nn(CCCCNC(=S)Nc3ccc(-c4c5ccc(=O)cc-5oc5cc(O)ccc45)c(C(=O)O)c3)c3ccccc13)C2
- Activity [1]: Active
- Activity [2]: inactive

SMILES: CCN(CC)c1ccc2cc(C(=O)NCCOc3cccc4c(C(=O)N[C@@H]5C[C@H]6CCC[C@@H](C5)N6C)nn(C)c34)c(=O)oc2c1
- Activity [1]: inactive

SMILES: CN1[C@@H]2CCC[C@H]1C[C@H](NC(=O)c1nn(CCCCNc3ccc([N+](=O)[O-])c4nonc34)c3ccccc13)C2
- Ki [3]: Not Active

SMILES: CN1[C@@H]2CCC[C@H]1C[C@H](NC(=O)c1nn(CCCNc3ccc([N+](=O)[O-])c4nonc34)c3ccccc13)C2
- Activity [1]: inactive

SMILES: CCN(CC)c1ccc2cc(C(=O)NCCCCn3nc(C(=O)N[C@@H]4C[C@H]5CCC[C@@H](C4)N5C)c4ccccc43)c(=O)oc2c1
- Activity [1]: inactive

SMILES: CN1[C@@H]2CCC[C@H]1C[C@H](NC(=O)c1nn(CCCNC(=S)Nc3ccc(-c4c5ccc(=O)cc-5oc5cc(O)ccc45)c(C(=O)O)c3)c3ccccc13)C2
- Activity [1]: Active
- Activity [2]: inactive

SMILES: CC1=CC(C)=[N+]2C1=C(CCCOC(=O)CCCn1nc(C(=O)N[C@@H]3C[C@H]4CCC[C@@H](C3)N4C)c3ccccc31)c1c(C)cc(C)n1[B-]2(F)F
- Activity [1]: Active
- Activity [2]: Active

SMILES: CN(C)c1cccc2c(S(=O)(=O)NCCCn3nc(C(=O)N[C@H]4C[C@H]5CCC[C@@H](C4)N5C)c4ccccc43)cccc12
- Activity [1]: inactive
